Experimental data taken from patent US20250270180A1, “MEK INHIBITORS AND THERAPEUTIC USES THEREOF” (Immuneering Corporation, priority 2020, published 2025).
Like-named read-outs stand apart in the source and are kept apart here.

Experiments:
[1] = test system: A549 (KRAS G12S) pERK: total ERK; experiment: Phospho-ERK screen in A549 (KRAS G12S); format: cell-based; conditions: 10 μM for 2 hours; for activity at 10 µM: Homo sapiens, A549, 2 h, read-out: pERK: total ERK (% relative to vehicle)
Procedure: Materials and Methods: A549 or A375 cells were seeded in 6-well plates at an appropriate seeding density on day 0. On day 2 or 3, after checking the health and confluency of cells, the media was aspirated and replaced with 1 mL media containing a predetermined concentration of compound and incubated for 2 hours. After 2 hours, the media was aspirated, and the cells washed 2 times with cold PBS. Cells were lysed on ice, with 50 uL 1×CST lysis buffer+1 mM PMSF for 5 minutes. After 5 minutes, cells were removed using a scraper and transferred to cold 1.5 mL tubes, and centrifuged for 10 min, 4° C., 14,000×g. Supernatant was gently removed and snap frozen in liquid nitrogen. Protein concentration of the lysate was determined using Bradford Reagent (analyzed using SpectraMax M2E) and diluted to 1 mg/mL or pERK or 1.5 mg/mL for pMEK analysis. Cell lysates were then analyzed for phosphor-ERK/total-ERK levels on a Jess system (ProteinSimple; Cat #JS3346) using the following antibodies: tERK1/2 (CST 4696; 1:50) and pERK1/2 (CST 4377; 1:50). For pMEK/tMEK, the following antibodies were used: tMEK1/2 (CST 4694; 1:15) and pMEK1/2 (CST 9154; 1:400). All dilutions were in Milk-free antibody diluent.
The results of a phospho-ERK Screen in A549 (KRAS G12S) study is described in Table 7, 7A, 7B, and 8 below.

A549 pERK = experiment: A549-pERK, 2 h (quantitative Western, Jess); format: cell-based; conditions: Homo sapiens, A549, 2 h, phospho:total ratio normalized to DMSO control; for activity at 0.01 µM: 10 nM
Summary of the method: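 Cells treated in duplicate for 2 h with compound, lysed and protein-normalised (1 mg/mL pERK, 1.5 mg/mL pMEK). Quantitative capillary Western; phospho/total protein ratio normalised to DMSO.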

[2] = test system: A549 CRAF BP (MEK phosphorylation); experiment: A549-CRAF BP 100 nM, 2 h (pMEK); format: cell-based; conditions: Homo sapiens, A549, 2 h, phospho:total ratio normalized to DMSO control
Procedure: A549 or […] cells were treated in duplicate for two hours with compounds at varying concentrations. After two hours, the cells were lysed, snap frozen, and stored at −80° C. After storage, the lysate was quantified with the Bradford assay. Before the lysates were prepared to run on the Jess, the lysates were diluted to 1 mg/mL for pERK analysis and 1.5 mg/mL pMEK analysis using quantitative Western blotting. ERK and MEK phosphorylation levels were estimated by taking the ratio of phospho-protein to total protein and normalizing to the DMSO control. The results of this study are described in Tables 14-16.

[3] = Microsome stability, human; format: in vitro ADME; conditions: microsomes, 2 μM
[4] = Microsome stability, beagle dog; format: in vitro ADME; conditions: microsomes, 2 μM
Plasma stability, human = format: in vitro ADME; conditions: 2 μM
[5] = Plasma stability, beagle dog; format: in vitro ADME; conditions: 2 μM
[6] = Plasma stability, CD-1 mouse; format: in vitro ADME; conditions: 2 μM
CYP450 1A2 = molecular target: T1, CYP450 1A2 (Homo sapiens, UniProt P05177); experiment: CYP450 panel, 1A2; format: in vitro ADME; conditions: 10 μM; substrate phenacetin
T1 sequence (P05177 1-516): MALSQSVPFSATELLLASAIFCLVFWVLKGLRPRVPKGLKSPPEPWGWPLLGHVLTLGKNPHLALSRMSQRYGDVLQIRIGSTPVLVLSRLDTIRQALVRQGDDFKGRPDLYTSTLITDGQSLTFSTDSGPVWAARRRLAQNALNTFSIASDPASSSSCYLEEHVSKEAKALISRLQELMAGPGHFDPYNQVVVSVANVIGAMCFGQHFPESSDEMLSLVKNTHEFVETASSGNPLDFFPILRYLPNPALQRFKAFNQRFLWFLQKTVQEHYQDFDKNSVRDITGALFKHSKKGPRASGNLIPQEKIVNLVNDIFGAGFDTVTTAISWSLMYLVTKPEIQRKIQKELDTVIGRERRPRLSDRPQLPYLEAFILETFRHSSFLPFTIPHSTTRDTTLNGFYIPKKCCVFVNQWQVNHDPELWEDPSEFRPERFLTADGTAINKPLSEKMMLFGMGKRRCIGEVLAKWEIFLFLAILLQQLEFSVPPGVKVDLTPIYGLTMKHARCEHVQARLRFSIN

hERG Channel [7] = molecular target: T2, hERG Channel (Homo sapiens, UniProt Q12809); experiment: in vitro
CYP450 2B6 = molecular target: T3, CYP450 2B6 (Homo sapiens, UniProt P20813); experiment: CYP450 panel, 2B6; conditions: 10 μM; substrate bupropion
T3 sequence (P20813 1-491): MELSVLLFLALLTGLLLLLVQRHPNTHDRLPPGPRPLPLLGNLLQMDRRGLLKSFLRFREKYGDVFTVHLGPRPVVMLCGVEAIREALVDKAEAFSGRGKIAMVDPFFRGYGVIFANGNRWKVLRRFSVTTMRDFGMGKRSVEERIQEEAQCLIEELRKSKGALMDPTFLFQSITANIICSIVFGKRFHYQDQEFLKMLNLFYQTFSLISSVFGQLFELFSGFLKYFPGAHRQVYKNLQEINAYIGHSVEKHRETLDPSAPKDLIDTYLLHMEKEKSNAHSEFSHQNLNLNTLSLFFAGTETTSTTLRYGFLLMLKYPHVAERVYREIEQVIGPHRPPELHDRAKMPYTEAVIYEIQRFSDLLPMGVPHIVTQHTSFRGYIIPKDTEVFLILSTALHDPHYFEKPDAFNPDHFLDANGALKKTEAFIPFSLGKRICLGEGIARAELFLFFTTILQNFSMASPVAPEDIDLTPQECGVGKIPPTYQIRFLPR

CYP450 2C8 = molecular target: T4, CYP450 2C8 (Homo sapiens, UniProt P10632); experiment: CYP450 panel, 2C8; conditions: 10 μM; substrate amodiaquine
T4 sequence (P10632 1-490): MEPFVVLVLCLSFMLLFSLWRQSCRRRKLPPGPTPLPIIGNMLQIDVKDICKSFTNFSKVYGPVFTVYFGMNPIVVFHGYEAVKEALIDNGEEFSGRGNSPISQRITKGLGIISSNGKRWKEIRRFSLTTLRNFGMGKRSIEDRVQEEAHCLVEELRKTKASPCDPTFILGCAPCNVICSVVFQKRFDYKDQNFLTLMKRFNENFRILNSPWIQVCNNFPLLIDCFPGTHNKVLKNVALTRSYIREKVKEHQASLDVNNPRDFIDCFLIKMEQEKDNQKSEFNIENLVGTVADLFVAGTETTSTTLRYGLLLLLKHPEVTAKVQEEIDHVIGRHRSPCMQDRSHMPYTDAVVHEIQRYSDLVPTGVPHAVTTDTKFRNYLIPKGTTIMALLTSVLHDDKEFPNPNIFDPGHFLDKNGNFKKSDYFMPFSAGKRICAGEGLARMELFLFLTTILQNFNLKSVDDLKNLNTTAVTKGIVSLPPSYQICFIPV

CYP450 2C9 = CYP450 2C9 (Homo sapiens, UniProt P11712); experiment: CYP450 panel, 2C9; conditions: 10 μM; substrate Diclofenac
CYP450 2D6 = CYP450 2D6 (Homo sapiens, UniProt P10635); experiment: CYP450 panel, 2D6; conditions: 10 μM; substrate dextromethophan
CYP450 3A4 = CYP450 3A4 (Homo sapiens, UniProt P08684); experiment: CYP450 panel, 3A4; conditions: 10 μM; for 3A4*: substrate midazolam; for 3A4^: substrate testosterone
CYP450 2C19 = CYP450 2C19 (Homo sapiens, UniProt P33261); experiment: CYP450 panel, 2C19; conditions: 10 μM; substrate mephenytoin
[8] = Microsome stability, CD-1 mouse; conditions: microsomes, 2 μM
[9] = Pharmacokinetics, single dose, 2-hour tissue levels in Colon26 tumor bearing mice; format: in vivo; conditions: female, athymic BALB/c nude or BALB/c, mouse, po, single dose 100 mg/kg p.o., 2-hour post dose
Procedure: Female mice (either athymic BALC/c nude, or BALB/c mice) were inoculated with a single subcutaneous injection of 0.2 ml of mouse Colon-26 cell suspension (1×10^5 cells per animal) in the inguinal region. Colon26 (C26) tumor bearing mice received a single dose (3 mice/treatment) of vehicle (10% DMSO/90% [20% SBE-β-CD in saline], pH 5) containing compounds at 100 mg/kg by gavage (p.o.) and 2-hour post dose humanely euthanized.
Blood was obtained through cardiac puncture into K+EDTA tubes, mixed by inversion and centrifuged to obtain the plasma. Tissues were excised, cleaned of surrounding tissues. All samples immediately snap frozen in liquid N2 prior to LC-MS/MS analysis (using Waters HSS T3 2.1×50 mm (1.8 um) LC column, and an API-6500 Electrospray MS unit).

hERG Channel [10] = molecular target: T2, hERG Channel; experiment: cell-based
[11] = Absorption & efflux: Caco-2 permeability; conditions: human

Chain of CYP450 3A4 (P08684 whole entry): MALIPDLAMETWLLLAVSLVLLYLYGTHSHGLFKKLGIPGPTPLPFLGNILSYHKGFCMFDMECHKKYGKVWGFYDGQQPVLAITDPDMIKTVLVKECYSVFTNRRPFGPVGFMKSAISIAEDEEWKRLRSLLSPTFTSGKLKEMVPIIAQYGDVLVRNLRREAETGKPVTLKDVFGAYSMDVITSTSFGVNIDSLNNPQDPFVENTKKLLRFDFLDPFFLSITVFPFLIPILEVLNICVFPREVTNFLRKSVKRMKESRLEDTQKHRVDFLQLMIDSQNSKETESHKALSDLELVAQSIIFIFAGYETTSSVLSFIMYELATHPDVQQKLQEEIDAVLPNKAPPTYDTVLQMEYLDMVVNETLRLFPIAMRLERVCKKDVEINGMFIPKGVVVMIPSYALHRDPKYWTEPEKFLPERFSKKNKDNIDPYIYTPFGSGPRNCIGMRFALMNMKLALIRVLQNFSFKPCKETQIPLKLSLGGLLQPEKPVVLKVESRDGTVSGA
Chain of CYP450 2C9 (P11712 whole entry): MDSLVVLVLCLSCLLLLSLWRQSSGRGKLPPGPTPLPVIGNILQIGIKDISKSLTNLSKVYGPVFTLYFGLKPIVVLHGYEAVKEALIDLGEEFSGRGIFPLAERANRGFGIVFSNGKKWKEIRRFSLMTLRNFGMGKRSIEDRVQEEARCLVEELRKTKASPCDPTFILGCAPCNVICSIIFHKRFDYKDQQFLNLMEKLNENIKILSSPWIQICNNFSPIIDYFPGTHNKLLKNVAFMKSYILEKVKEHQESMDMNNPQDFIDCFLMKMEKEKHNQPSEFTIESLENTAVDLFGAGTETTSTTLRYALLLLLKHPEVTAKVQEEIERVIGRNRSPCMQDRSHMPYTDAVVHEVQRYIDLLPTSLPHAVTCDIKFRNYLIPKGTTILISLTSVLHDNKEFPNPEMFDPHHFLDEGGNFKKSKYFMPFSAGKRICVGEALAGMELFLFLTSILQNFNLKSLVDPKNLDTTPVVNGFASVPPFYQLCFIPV
Chain of CYP450 2D6 (P10635 whole entry): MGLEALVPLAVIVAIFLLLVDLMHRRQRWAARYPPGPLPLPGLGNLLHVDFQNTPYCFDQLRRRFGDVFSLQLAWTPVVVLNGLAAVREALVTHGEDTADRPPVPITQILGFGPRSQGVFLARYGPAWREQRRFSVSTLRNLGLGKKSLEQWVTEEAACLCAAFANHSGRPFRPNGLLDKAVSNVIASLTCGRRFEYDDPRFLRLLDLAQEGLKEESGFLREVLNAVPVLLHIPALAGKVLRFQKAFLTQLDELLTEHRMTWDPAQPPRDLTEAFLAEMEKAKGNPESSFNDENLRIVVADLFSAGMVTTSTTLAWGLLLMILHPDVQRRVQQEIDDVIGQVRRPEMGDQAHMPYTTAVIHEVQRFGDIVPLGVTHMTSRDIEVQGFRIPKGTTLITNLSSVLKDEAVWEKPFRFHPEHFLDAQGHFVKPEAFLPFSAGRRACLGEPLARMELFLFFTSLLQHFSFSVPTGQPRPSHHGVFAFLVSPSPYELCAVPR
Chain of CYP450 2C19 (P33261 whole entry): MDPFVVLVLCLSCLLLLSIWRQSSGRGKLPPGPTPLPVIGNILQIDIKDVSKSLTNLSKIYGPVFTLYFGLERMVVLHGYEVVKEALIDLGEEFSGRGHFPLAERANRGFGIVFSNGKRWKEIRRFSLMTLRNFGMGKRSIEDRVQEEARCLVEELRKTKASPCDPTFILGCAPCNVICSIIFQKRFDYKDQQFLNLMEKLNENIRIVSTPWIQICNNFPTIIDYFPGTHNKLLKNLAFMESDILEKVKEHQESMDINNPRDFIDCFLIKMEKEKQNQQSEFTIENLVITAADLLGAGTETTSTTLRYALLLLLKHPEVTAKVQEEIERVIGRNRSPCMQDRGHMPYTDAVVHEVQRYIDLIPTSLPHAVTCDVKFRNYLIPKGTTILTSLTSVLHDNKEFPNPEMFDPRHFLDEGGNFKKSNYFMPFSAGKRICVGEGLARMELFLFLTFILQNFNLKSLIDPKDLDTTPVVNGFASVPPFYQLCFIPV
T2 sequence (Q12809 whole entry): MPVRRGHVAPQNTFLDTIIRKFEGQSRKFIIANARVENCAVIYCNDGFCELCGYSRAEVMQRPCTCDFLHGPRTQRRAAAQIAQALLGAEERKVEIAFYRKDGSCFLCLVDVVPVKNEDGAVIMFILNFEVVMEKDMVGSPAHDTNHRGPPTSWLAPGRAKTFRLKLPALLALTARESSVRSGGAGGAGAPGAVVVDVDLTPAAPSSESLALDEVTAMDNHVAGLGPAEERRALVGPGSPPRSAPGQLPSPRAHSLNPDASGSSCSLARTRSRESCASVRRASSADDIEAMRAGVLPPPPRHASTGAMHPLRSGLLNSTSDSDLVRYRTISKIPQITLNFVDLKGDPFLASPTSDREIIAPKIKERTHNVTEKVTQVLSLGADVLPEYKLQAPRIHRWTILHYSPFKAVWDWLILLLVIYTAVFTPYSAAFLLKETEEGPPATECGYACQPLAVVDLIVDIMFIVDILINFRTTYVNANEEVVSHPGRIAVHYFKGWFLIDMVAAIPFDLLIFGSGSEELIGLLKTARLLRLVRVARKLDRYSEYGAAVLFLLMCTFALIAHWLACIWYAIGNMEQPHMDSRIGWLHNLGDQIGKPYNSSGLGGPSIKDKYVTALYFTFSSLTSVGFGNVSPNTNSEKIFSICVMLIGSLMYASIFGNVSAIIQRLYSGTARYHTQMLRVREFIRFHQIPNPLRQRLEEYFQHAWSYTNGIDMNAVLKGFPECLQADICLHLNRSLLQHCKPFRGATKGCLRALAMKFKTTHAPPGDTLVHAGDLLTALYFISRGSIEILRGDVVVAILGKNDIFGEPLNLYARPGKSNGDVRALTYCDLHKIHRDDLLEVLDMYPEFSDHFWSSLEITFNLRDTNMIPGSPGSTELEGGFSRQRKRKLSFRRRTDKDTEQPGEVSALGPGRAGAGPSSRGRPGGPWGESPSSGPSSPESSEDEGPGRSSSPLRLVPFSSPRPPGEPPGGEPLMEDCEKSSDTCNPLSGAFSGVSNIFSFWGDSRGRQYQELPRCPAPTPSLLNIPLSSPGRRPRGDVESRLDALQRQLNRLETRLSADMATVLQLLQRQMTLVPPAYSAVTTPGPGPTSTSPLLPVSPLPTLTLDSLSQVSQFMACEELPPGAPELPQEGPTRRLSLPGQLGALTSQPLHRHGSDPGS

Row | SMILES | activity at 10 µM [1] [%] | activity at 0.01 µM (A549 pERK) [%] | activity at 10 µM (A549 pERK) [%] | activity at 0.1 µM [2] [%] | Human (% Reamining @1 hour) [3] [%] | Beagle Dog (% Reamining @1 hour) [4] [%] | Human (% Reamining @2 hour) (Plasma stability, human) [%] | Beagle Dog (% Reamining @2 hour) [5] [%] | CD-1 Mouse (% Reamining @2 hour) [6] [%] | 1A2* (CYP450 1A2) | 2B6* (CYP450 2B6) | 2C8* (CYP450 2C8) | 2C9* (CYP450 2C9) | 2D6* (CYP450 2D6) | 3A4* (CYP450 3A4) | 3A4^ (CYP450 3A4) | 2C19* (CYP450 2C19) | CD-1 Mouse (% Reamining @1 hour) [8] [%] | pERK: total ERK (% relative to vehicle) [1] [%] | other results
1 | CNS(=O)(=O)Nc1cccc(Cc2c(CNCC(=O)N3CCNCC3)c3ccc(OC(=O)N(C)C)cc3oc2=O)c1F [Compound 191] | 7.34 | 131 | 8.6 | – | – | – | – | – | – | – | – | – | – | – | – | – | – | – | – | –
2 | CNS(=O)(=O)Nc1cccc(Cc2c(CN3CCNCC3)c3cc(F)c(OC(=O)N(C)C)cc3oc2=O)c1F [Compound 134] | 23.4 | 33.1 | – | 26.9 | – | – | – | – | – | – | – | – | – | – | – | – | – | – | – | –
3 | CNS(=O)(=O)Nc1cccc(Cc2c(C)c3ccc(OC(=O)N(C)C)cc3oc2=O)c1F [Compound 7] | – | – | – | – | 61.1 | 57.0 | 88.1 | 99.8 | 56.5 | 0.3 | 28.5 | 14.4 | 33.8 | −7.4 | 29.9 | 59.7 | 11.6 | 29.6 | – | IC50 (hERG Channel [7]): 28.6 µM
4 | C#CCNCc1c(Cc2cccc(NS(=O)(=O)NC)c2F)c(=O)oc2cc(OC(=O)N(C)C)ccc12 [Compound 14] | – | 64 | – | 59.1 | 38.1 | 51.6 | 96.0 | 91.2 | 95.0 | 6.3 | 15.6 | 8.4 | 8.2 | 6.6 | 26.7 | 39.3 | 4.0 | 13.2 | – | concentration at 2 h ([9]; liver, read-out: Liver): 17.8 ng/g; concentration at 2 h ([9]; muscle, read-out: Muscle): 19 ng/g; concentration at 2 h ([9]; plasma, read-out: Plasma): 18.5 ng/mL; concentration at 2 h ([9]; tumor, read-out: Tumor): 2.68 ng/g; IC50 (hERG Channel [10]): 19.4 µM; Papp B→A at 2 h, 10 μM [11]: 26.1 ×10⁻⁶ cm/s; efflux ratio at 2 h, 10 μM [11]: 2.8; Papp A→B at 2 h, 10 μM ([11]; Caco-2, A-B Permeability Ranking): > 1 ×10⁻⁶ cm/s; Papp A→B at 2 h, 10 μM ([11]; Caco-2, Mean Papp A-B (10^−6 cm/s)): 9.34 ×10⁻⁶ cm/s
5 | CNS(=O)(=O)Nc1cccc(Cc2c(CNC(=O)OCCO)c3ccc(OC(=O)N(C)C)cc3oc2=O)c1F [Compound 185] | – | – | – | – | – | – | – | – | – | – | – | – | – | – | – | – | – | – | 7.39 | –
6 | CNS(=O)(=O)Nc1cccc(Cc2c(CNC(=O)OCCO)c3ccc(OC(=O)N(C)C)cc3oc2=O)c1F [Compound 106] | – | – | 27.9 | – | – | – | – | – | – | – | – | – | – | – | – | – | – | – | 27.88 | –
